In patent US20240400518A1, “SOS1 INHIBITOR AND USE THEREOF” (KANAPH THERAPEUTICS INC., priority 2021, published 2024):

Columns and labels:
SOS1 = target: T1, SOS1 (Homo sapiens, UniProt Q07889); experiment: SOS-catalyzed nucleotide exchange assay (HTRF, SOS1-mediated GTP loading of KRAS G12D); assay type: biochemical; details: GST-KRAS G12D, HIS-SOS1cat, IC50 class
T1 construct: adding equal amounts of HIS—SOS1cat (160 nM; Cytoskeleton, US); His (N); purchased Cytoskeleton, US
T1 sequence (Q07889 564-1049 limits assumed): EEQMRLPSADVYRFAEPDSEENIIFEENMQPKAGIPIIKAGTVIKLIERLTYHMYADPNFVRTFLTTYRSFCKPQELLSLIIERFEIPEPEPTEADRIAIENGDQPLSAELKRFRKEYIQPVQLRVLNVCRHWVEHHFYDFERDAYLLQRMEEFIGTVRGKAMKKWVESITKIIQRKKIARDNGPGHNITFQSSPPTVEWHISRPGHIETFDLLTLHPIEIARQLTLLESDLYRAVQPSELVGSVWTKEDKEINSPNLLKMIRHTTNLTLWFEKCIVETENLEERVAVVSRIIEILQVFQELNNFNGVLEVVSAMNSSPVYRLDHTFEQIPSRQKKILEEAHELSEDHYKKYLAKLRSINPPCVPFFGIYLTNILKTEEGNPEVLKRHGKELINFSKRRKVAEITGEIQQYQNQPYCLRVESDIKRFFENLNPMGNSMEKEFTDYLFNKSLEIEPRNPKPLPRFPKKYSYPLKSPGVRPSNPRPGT
Description: SOS1 activity was measured by SOS1-mediated GTP loading quantification of KRAS^G12D. GTP loaded KRAS^G12D was detected by HTRF (Homogeneous Time Resolved Fluorescence) using anti-GST terbium (Cisbio, France) as a donor and a fluorescence GTP analogue (EDA-GTP-DY-647P1, [DY-647P1 labeled 2′/3′-O-(2-aminoethyl-carbamoyl)guanosine-5′-triphosphate (Jena bioscience, Germany)]) as an acceptor.
Assay buffer was composed of 10 mM HEPES pH 7.4, 150 mM NaCl, 5 mM MgCl2, 1 mM DTT, 0.05% BSA Fraction V pH 7.0 (Sigma) and 0.0025% (v/v) Igepal (Sigma). KRAS^G12D working solution was prepared by adding equal amounts of GST-KRAS^G12D (100 nM) and anti-GST-terbium (2 nM; Cisbio, France) to the assay buffer and culturing on ice for 10 minutes. SOS1cat working solution was prepared by adding equal amounts of HIS—SOS1cat (160 nM; Cytoskeleton, US) and EDA-GTP-DY-647P1 (200 nM; Jena bioscience, Germany) to the assay buffer. Control solution was prepared by adding equal volumes of EDA-GTP-DY-647P1 and the assay buffer for normalization control to exclude GEF-independent GTP loading and background signals. In order to induce a reaction, 5 μL of the SOS1cat working solution or the control solution was injected into each well. 5 μL of a compound having various concentrations from 128 pM to 10 μM was added to wells containing the SOS1cat working solution and incubated at room temperature for 10 minutes to bind to SOS1.
10 μL of the KRAS^G12D solution was added to each well and incubated for 30 minutes at room temperature while shaking. HTRF was measured using a Thermo Varioskan (excitation 334 nm, emission 665 nm). The IC50 of each inhibitor was analyzed using Graphad Prism.

KRAS^G12C::SOS1 = target: T2, KRAS^G12C::SOS1 (Homo sapiens, UniProt Q07889); experiment: KRAS G12C::SOS1 protein-protein interaction (PPI) inhibition assay (HTRF binding kit); details: max inhibitor concentration 3 μM, three replicates, IC50 class
T2 construct: purchased CISBIO, FRANCE 64KRASG12PEH
T2 sequence (Q07889 1-1333): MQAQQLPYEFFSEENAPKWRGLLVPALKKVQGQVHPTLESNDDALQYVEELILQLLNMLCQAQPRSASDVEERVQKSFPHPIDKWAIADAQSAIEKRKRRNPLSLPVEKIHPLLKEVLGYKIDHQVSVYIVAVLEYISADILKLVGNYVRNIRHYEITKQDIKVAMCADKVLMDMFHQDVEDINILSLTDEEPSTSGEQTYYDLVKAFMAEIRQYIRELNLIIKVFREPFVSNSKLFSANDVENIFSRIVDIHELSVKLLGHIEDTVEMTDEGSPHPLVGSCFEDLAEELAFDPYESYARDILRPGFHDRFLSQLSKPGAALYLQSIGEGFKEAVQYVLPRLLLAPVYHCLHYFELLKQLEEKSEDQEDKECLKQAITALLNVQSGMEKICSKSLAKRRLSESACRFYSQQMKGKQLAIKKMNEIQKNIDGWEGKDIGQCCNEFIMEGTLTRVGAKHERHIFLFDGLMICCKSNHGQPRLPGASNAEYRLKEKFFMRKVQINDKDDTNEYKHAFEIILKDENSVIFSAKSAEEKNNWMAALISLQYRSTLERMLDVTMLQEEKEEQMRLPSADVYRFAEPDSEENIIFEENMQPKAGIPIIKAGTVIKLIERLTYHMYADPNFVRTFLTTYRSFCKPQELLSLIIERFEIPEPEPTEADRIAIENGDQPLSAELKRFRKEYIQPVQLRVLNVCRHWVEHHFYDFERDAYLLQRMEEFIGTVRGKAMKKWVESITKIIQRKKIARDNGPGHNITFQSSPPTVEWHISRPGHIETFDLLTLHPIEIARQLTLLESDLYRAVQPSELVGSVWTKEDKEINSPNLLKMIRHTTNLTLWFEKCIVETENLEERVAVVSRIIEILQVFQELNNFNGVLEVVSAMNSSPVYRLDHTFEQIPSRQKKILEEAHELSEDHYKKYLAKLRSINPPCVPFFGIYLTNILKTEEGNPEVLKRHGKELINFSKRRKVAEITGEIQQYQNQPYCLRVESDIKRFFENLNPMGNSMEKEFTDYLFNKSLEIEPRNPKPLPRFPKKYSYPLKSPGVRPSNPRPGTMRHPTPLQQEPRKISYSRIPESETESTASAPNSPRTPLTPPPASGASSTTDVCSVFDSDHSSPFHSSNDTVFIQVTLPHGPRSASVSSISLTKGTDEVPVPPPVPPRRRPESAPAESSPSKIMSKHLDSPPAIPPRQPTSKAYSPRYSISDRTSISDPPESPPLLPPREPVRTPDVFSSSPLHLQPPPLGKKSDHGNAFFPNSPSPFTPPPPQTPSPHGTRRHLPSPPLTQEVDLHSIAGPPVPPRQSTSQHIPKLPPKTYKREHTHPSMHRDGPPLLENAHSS
Description: Protein-protein interaction between SOS1 and KRAS^G12C was detected using KRAS G12C/SOS1 binding kit from CISBIO (64KRASG12PEH, CISBIO, FRANCE) according to the manufacturer's assay method. Briefly, the maximum concentration of an inhibitor sample was set to be 3 μM, and the inhibitor sample was diluted 7 times by 1/3, and samples having a total of 8 concentrations were prepared. In HTRF (Homogeneous Time-Resolved Fluorescence) exclusive 96-well low-volume white plate (66PL96005, CISBIO, FRANCE), 2 μL of an inhibitor sample prepared for each concentration, 5 μL of a mixed solution of Tag1 labeled KRAS^G12C protein and GTP diluted with the dilution solution provided by the manufacturer, and 5 μL of Tag2 labeled SOS1 protein were mixed, and added with 8 μL of a diluted solution where anti-Tag1 KRAS^G12CXL665 (HTRF acceptor) labeled antibody and anti-Tag2 SOS1 Terbium cryptate (HTRF donor) labeled antibody were mixed in an equal ratio and cultured at room temperature for 2 hours.

| Compound | IC50 (SOS1) [nM] | IC50 (KRAS^G12C::SOS1) [nM] |
| --- | --- | --- |
| C[C@@H](NC(=O)c1ccc(=O)n(-c2ccc(-c3ccccc3)cc2)n1)c1cc(N)cc(C(F)(F)F)c1 [Example 24] | 1000 to 10000 |  |
| C[C@@H](NC(=O)c1ccc(=O)n(-c2cccc(-c3ccnn3C)c2)c1)c1cccc(C(F)(F)CO)c1F [Example 78, N-[(1R)-1-[3-(1,1-difluoro-2-hydroxyethyl)-2-fluorophenyl]ethyl]-1-[3-(1-methyl-1H-pyrazol-5-yl)phenyl]-6-oxo-1,6-dihydropyridine-3-carboxamide] | < 1000 |  |
| C[C@@H](NC(=O)c1ccc(=O)n(-c2cccc(C(C)(C)O)c2)n1)c1cc(N)cc(C(F)(F)F)c1 [Example 171] |  | < 1000 |
| C[C@@H](NC(=O)c1ccc(=O)n(-c2ccncc2F)n1)c1cc(N)cc(C(F)(F)F)c1 [Example 191] |  | < 1000 |
| C[C@@H](NC(=O)c1ccc(=O)n(-c2cccc(-c3ccccc3)c2)n1)c1cc(N)cc(C(F)(F)F)c1 [Example 212] |  | 1000 to 10000 |
| Cc1c([C@@H](C)NC(=O)c2ccc(=O)n(-c3ccccc3F)n2)cc(N)cc1C(F)(F)F [Example 244, N-[(1R)-1-[5-amino-2-methyl-3-(trifluoromethyl)phenyl]ethyl]-1-(2-fluorophenyl)-6-oxo-pyridazine-3-carboxamide] |  | < 1000 |
| C[C@@H](NC(=O)c1ccc(=O)n(-c2cccc(C(=O)O)c2)n1)c1cc(N)cc(C(F)(F)F)c1 [Example 249, 3-(3-{[(1R)-1-[3-amino-5-(trifluoromethyl)phenyl]ethyl]carbamoyl}-6-oxo-1,6-dihydropyridazin-1-yl)benzoic acid] |  | < 1000 |
| C[C@@H](NC(=O)c1ccc(=O)n(-c2ccccc2F)n1)c1ccc(Br)s1 [Example 265, N-[(1R)-1-(5-bromo-2-thienyl)ethyl]-1-(2-fluorophenyl)-6-oxo-pyridazine-3-carboxamide] |  | < 1000 |
| CNCc1ccc(Cl)cc1-c1ccc([C@@H](C)NC(=O)c2ccc(=O)n(-c3cccnc3)c2)s1 [Example 284] |  | < 1000 |
| C[C@@H](NC(=O)c1ccc(=O)n(-c2cccc(-c3cnoc3)c2)n1)c1cc(N)cc(C(F)(F)F)c1 [Example 322, N-[(1R)-1-[3-amino-5-(trifluoromethyl)phenyl]ethyl]-1-(3-isoxazol-4-ylphenyl)-6-oxo-pyridazine-3-carboxamide] |  | < 1000 |
| C[C@@H](NC(=O)c1ccc(=O)n(-c2cccc(-c3cnnn3C)c2)n1)c1cccc(C(F)(F)CO)c1F [Example 370, N-[(1R)-1-[3-(1,1-difluoro-2-hydroxy-ethyl)-2-fluoro-phenyl]ethyl]-1-[3-(3-methyltriazol-4-yl)phenyl]-6-oxo-pyridazine-3-carboxamide] |  | < 1000 |
| C[C@@H](NC(=O)c1ccc(=O)n(-c2cc(-c3cnnn3C)ccc2F)n1)c1cc(N)cc(C(F)(F)F)c1 [Example 371, N-[(1R)-1-[3-amino-5-(trifluoromethyl)phenyl]ethyl]-1-[2-fluoro-5-(3-methyltriazol-4-yl)phenyl]-6-oxo-pyridazine-3-carboxamide] |  | < 1000 |
| Cc1cnnn1-c1cccc(-n2cc(C(=O)N[C@H](C)c3cc(N)cc(C(F)(F)F)c3)ccc2=O)c1 [Example 377, N-[(1R)-1-[3-amino-5-(trifluoromethyl)phenyl]ethyl]-1-[3-(5-methyltriazol-1-yl)phenyl]-6-oxo-pyridine-3-carboxamide] |  | < 1000 |
| Cc1cnnn1-c1cccc(-n2nc(C(=O)N[C@H](C)c3cc(N)cc(C(F)(F)F)c3)ccc2=O)c1 [Example 378, N-[(1R)-1-[3-amino-5-(trifluoromethyl)phenyl]ethyl]-1-[3-(5-methyltriazol-1-yl)phenyl]-6-oxo-pyridazine-3-carboxamide] |  | < 1000 |
| C[C@@H](NC(=O)c1ccc(=O)n(-c2ccc(F)c(-c3cnnn3C)c2)n1)c1cc(N)cc(C(F)(F)F)c1 [Example 389, N-[(1R)-1-[3-amino-5-(trifluoromethyl)phenyl]ethyl]-1-[4-fluoro-3-(3-methyltriazol-4-yl)phenyl]-6-oxo-pyridazine-3-carboxamide] |  | < 1000 |
| C[C@@H](NC(=O)c1ccc(=O)n(-c2ccc(F)c(-c3cnnn3C)c2)n1)c1cccc(C(F)(F)CO)c1F [Example 390] |  | < 1000 |
| C[C@@H](NC(=O)c1ccc(=O)n(-c2cc(F)cc(-c3cnnn3C)c2)n1)c1cc(N)cc(C(F)(F)F)c1 [Example 391, N-[(1R)-1-[3-amino-5-(trifluoromethyl)phenyl]ethyl]-1-[3-fluoro-5-(3-methyltriazol-4-yl)phenyl]-6-oxo-pyridazine-3-carboxamide] |  | < 1000 |
| C[C@@H](NC(=O)c1ccc(=O)n(-c2cncc(-c3cnnn3C)c2)n1)c1cc(N)cc(C(F)(F)F)c1 [Example 392, N-[(1R)-1-[3-amino-5-(trifluoromethyl)phenyl]ethyl]-1-[5-(3-methyltriazol-4-yl)-3-pyridyl]-6-oxo-pyridazine-3-carboxamide] |  | < 1000 |
| [2H]C([2H])([2H])n1nncc1-c1cccc(-n2nc(C(=O)N[C@H](C)c3cccc(C(F)(F)CO)c3F)ccc2=O)c1 [Example 393, N-[(1R)-1-[3-(1,1-difluoro-2-hydroxy-ethyl)-2-fluoro-phenyl]ethyl]-6-oxo-1-[3-[3-(trideuteriomethyl)triazol-4-yl]phenyl]pyridazine-3-carboxamide] |  | < 1000 |
